# Results taken from patent US20240041877A1, “DOSAGE REGIME AND METHOD FOR TREATING PULMONARY ARTERIAL HYPERTENSION” (Altavant Sciences GmbH, priority 2019, published 2024).
# Columns and labels:
# Assay type in all cases: in vivo, human
# [1] = test system: urine 5-HIAA (a PD marker of 5-HT synthesis); assay: Part 2 (MAD) biomarker: urine 5-HIAA/24 hours (measured, adjusted, estimated, per gram creatinine); conditions: for Measured urine 5-HIAA: mean difference of absolute change from Day 1 between KAR5585 and placebo / Measured urine 5-HIAA: mean difference of % change from Day 1 between KAR5585 and placebo: no creatinine adjustment
# From the text: (§1) Biomarkers were to be evaluated in Part 2 by measuring concentrations of serotonin (5-hydroxytryptamine [5-HT]) in serum and 5-hydroxyindoleacetic acid (5-HIAA) in plasma and urine. As well, the relationship of biomarkers to PK parameters was to be evaluated.
# (§2) The biomarker analysis was to be based on the Biomarker Population (all subjects with evaluable biomarker measurements at baseline [Day 1 predose] and at least one after dosing [Day 7 or Day 14]).
# (§3) Biomarker data were to be collected only in Part 2. The following biomarkers were to be analyzed: • Serum 5-HT • Plasma 5-HIAA • Urine 5-HIAA/24 hours (as measured, adjusted, estimated, and per gram creatinine)
# (§4) Summary statistics (mean, standard deviation [SD], median, minimum [Min], and maximum [Max]) were to be tabulated for each biomarker, by Cohort, with absolute and relative (%) changes from Day 1 predose.
# (§5) The values were to be tabulated with P values testing whether the difference of changes was equal to 0.
# (§6) The biomarker portion of the study was conducted in Part 2 MAD using the Biomarker Population. The biomarkers evaluated were serum 5-HT and plasma 5-HIAA, as well as urine 5-HIAA/24 hours (as measured, adjusted, estimated, and per gram creatinine). Urinary 5-HIAA was determined by a validated (21 C.F.R. 58, GLP-compliant) method using liquid chromatographic separation and tandem mass spectrometry detection.
# Urine 5 HIAA/24 hour was analyzed in 4 different manners: as measured in the 24-hour collection and (in order to correct for any collection errors) adjusted for creatinine excretion, estimated by the expected creatinine excretion for the subject (as defined in and expressed per gram creatinine. Results were similar for each of the 4 manners and are presented in this report for measured urine. Tables and figures for adjusted, estimated, and per-gram creatinine results are presented in Section 14.
# [2] = test system: plasma 5-HIAA (a PD marker of 5-HT synthesis); assay: Part 2 (MAD) biomarker: plasma 5-HIAA change from Day 1 predose; conditions: for mean reduction from Day 1 to Day 14 in plasma 5-HIAA: KAR5585 100 mg BID
# From the text: as §1, §2, §3
# The a priori primary biomarker endpoint was to be the change in plasma 5-HIAA concentration on Day 14 from Day 1.
# as §4, §5, §6
# [3] = Part 1 (SAD): urine pharmacokinetics (amount excreted, renal clearance) after a single oral dose of KAR5585
# [4] = Safety and tolerability in healthy adult subjects (SAD and MAD)
# [5] = KAR5585 400 mg BID, fed, listed as KAR5575
# [6] = all doses pooled, predose Day 7
# [7] = all doses pooled, predose Day 14
# [8] = KAR5585 in urine, 1200 mg KAR5585 single oral dose, mean
smiles,measurement,setting,value
"CCOC(=O)[C@@H]1CC2(CCN(c3cc(O[C@H](c4ccc(Cl)cc4-c4ccccc4)C(F)(F)F)nc(N)n3)CC2)CN1 [KAR5585, (S)-ethyl 8-(2-amino-6-((R)-1-(5-chloro-[1,1′-biphenyl]-2-yl)-2,2,2-trifluoroethoxy)pyrimidin-4-yl)-2,8-diazaspiro[4.5]decane-3-carboxylate]",Measured urine 5-HIAA: mean difference of absolute change from Day 1 between KAR5585 and placebo,"[1]; 200 mg fed, Day 7",−0.92 mg/24 hours
same,Measured urine 5-HIAA: mean difference of % change from Day 1 between KAR5585 and placebo,"[1]; 200 mg fed, Day 14",−37.11%
same,Measured urine 5-HIAA: mean difference of absolute change from Day 1 between KAR5585 and placebo,"[1]; 200 mg fed, Day 14",−1.58 mg/24 hours
same,Measured urine 5-HIAA: mean difference of % change from Day 1 between KAR5585 and placebo,"[1]; 400 mg fed, Day 7",−49.41%
same,Measured urine 5-HIAA: mean difference of absolute change from Day 1 between KAR5585 and placebo,"[1]; 400 mg fed, Day 7",−1.68 mg/24 hours
same,Measured urine 5-HIAA: mean difference of % change from Day 1 between KAR5585 and placebo,"[1]; 400 mg fed, Day 14",−54.82%
same,Measured urine 5-HIAA: mean difference of absolute change from Day 1 between KAR5585 and placebo,"[1]; 400 mg fed, Day 14",−2.04 mg/24 hours
same,"absolute and percent changes from Day 1 in creatinine-normalized urine 5-HIAA vs placebo, significance",[1]; Days 7 and 14,statistically significant in favor of KAR5585 versus placebo in all dose groups
same,mean percent change in measured urine 5-HIAA from Day 1 to Day 7,"[1]; KAR5585 400 mg BID, fed",−39.97%
same,mean percent change in measured urine 5-HIAA from Day 1 to Day 14,[1]; [5],−50.85%
same,Measured urine 5-HIAA: mean difference of % change from Day 1 between KAR5585 and placebo,"[1]; all doses pooled, Day 7",−40.03%
same,Measured urine 5-HIAA: mean difference of absolute change from Day 1 between KAR5585 and placebo,"[1]; all doses pooled, Day 7",−1.42 mg/24 hours
same,Measured urine 5-HIAA: mean difference of % change from Day 1 between KAR5585 and placebo,"[1]; all doses pooled, Day 14",−36.39%
same,Measured urine 5-HIAA: mean difference of absolute change from Day 1 between KAR5585 and placebo,"[1]; all doses pooled, Day 14",−1.54 mg/24 hours
same,Plasma 5-HIAA: mean difference of % change from Day 1 between KAR5585 and placebo,"[2]; 100 mg fasting, predose Day 7",23.67%
same,Plasma 5-HIAA: mean difference of absolute change from Day 1 between KAR5585 and placebo,"[2]; 100 mg fasting, predose Day 7",0.33 ng/mL
same,Plasma 5-HIAA: mean difference of % change from Day 1 between KAR5585 and placebo,"[2]; 100 mg fasting, predose Day 14",−48.83%
same,Plasma 5-HIAA: mean difference of absolute change from Day 1 between KAR5585 and placebo,"[2]; 100 mg fasting, predose Day 14",-5.92 ng/mL
same,Plasma 5-HIAA: mean difference of % change from Day 1 between KAR5585 and placebo,"[2]; 100 mg fed, predose Day 7",−48.56%
same,Plasma 5-HIAA: mean difference of absolute change from Day 1 between KAR5585 and placebo,"[2]; 100 mg fed, predose Day 7",-4.56 ng/mL
same,Plasma 5-HIAA: mean difference of % change from Day 1 between KAR5585 and placebo,"[2]; 100 mg fed, predose Day 14",−52.70%
same,Plasma 5-HIAA: mean difference of absolute change from Day 1 between KAR5585 and placebo,"[2]; 100 mg fed, predose Day 14",-4.50 ng/mL
same,Plasma 5-HIAA: mean difference of % change from Day 1 between KAR5585 and placebo,"[2]; 200 mg fed, predose Day 7",12.06%
same,Plasma 5-HIAA: mean difference of absolute change from Day 1 between KAR5585 and placebo,"[2]; 200 mg fed, predose Day 7",1.22 ng/mL
same,Plasma 5-HIAA: mean difference of % change from Day 1 between KAR5585 and placebo,"[2]; 200 mg fed, predose Day 14",−52.46%
same,Plasma 5-HIAA: mean difference of absolute change from Day 1 between KAR5585 and placebo,"[2]; 200 mg fed, predose Day 14",-5.25 ng/mL
same,Plasma 5-HIAA: mean difference of % change from Day 1 between KAR5585 and placebo,"[2]; 400 mg fed, predose Day 7",−76.47%
same,Plasma 5-HIAA: mean difference of absolute change from Day 1 between KAR5585 and placebo,"[2]; 400 mg fed, predose Day 7",-11.44 ng/mL
same,Plasma 5-HIAA: mean difference of % change from Day 1 between KAR5585 and placebo,"[2]; 400 mg fed, predose Day 14",−73.45%
same,Plasma 5-HIAA: mean difference of absolute change from Day 1 between KAR5585 and placebo,"[2]; 400 mg fed, predose Day 14",-10.69 ng/mL
same,mean reduction from Day 1 to Day 14 in plasma 5-HIAA,[2]; fasting,−28.71%
same,mean reduction from Day 1 to Day 14 in plasma 5-HIAA,[2]; fed,−32.58%
same,mean percent change in plasma 5-HIAA from Day 1 to Day 7,"[2]; KAR5585 400 mg BID, fed",−56.67%
same,mean percent change in plasma 5-HIAA concentration from Day 1 to Day 14,[2]; [5],−53.33%
same,Plasma 5-HIAA: mean difference of % change from Day 1 between KAR5585 and placebo,[2]; [6],−22.33%
same,Plasma 5-HIAA: mean difference of absolute change from Day 1 between KAR5585 and placebo,[2]; [6],-3.61 ng/mL
same,Plasma 5-HIAA: mean difference of % change from Day 1 between KAR5585 and placebo,[2]; [7],−57.11%
same,Plasma 5-HIAA: mean difference of absolute change from Day 1 between KAR5585 and placebo,[2]; [7],-6.69 ng/mL
same,"mean difference vs placebo of absolute and percent changes from Day 1 to Day 14 in plasma 5-HIAA, significance",[2]; each dose group and all doses combined,statistically significant in favor of KAR5585 compared to placebo in each dose group and for all doses combined at Day 14
same,Amount Excreted (Ae),[3]; [8],0 µg
same,Total Excreted (%),[3]; [8],0%
same,Total Excreted (%),"[3]; KAR5585 in urine, 2000 mg KAR5585 single oral dose, mean",0.0000751%
same,CL renal,"[3]; human, urine, po, 400 mg, KAR5585, 400 mg (Fasted) KAR5585 single oral dose, mean",0.858 mL/min
same,amount excreted (Ae) in urine,"[3]; single oral KAR5585, all dose levels",less than 0.004 % of the administered dose
same,safety and tolerability,"[4]; 100 mg (fasting), 100, 200, 400 mg (fed) BID up to 14 days, 36 healthy adult subjects",safe and well-tolerated
same,tolerability,"[4]; 400 mg single oral dose, fed, 9 healthy adult subjects",well-tolerated
same,"tolerability, whole trial","[4]; Part 1 and Part 2, all doses",well tolerated throughout the trial
same,safety and tolerability,"[4]; single ascending oral dose 100-2000 mg, fasting, 54 healthy adult subjects",safe and well-tolerated
